{"source": "patent US20050101577A1", "about": "“2-alkylidene-19-nor-vitamin D derivatives for the treatment of rickets or vitamin D deficiency” (Pfizer Inc., priority 2003, published 2005)", "origin": "cited, not measured here", "tested_on": "intestinal calcium transport", "conditions": "260 pmol/day, only dose tested", "data": [{"smiles": "C=C1/C(=C\\C=C2/CCC[C@]3(C)[C@@H]([C@H](C)CCCC(C)(C)O)CC[C@@H]23)C[C@@H](O)C[C@@H]1O", "note": "[1,25-(OH)2D3, 1,25-dihydroxyvitamin D3]", "values": [{"measurement": "intestinal calcium transport (in words)", "result": "expected elevation of intestinal calcium transport"}]}]}
